Test [1] relates to Diet Induced Obese (DIO) C57BL/6 mice. As to the kind of experiment: 10 day DIO mouse model, weight loss vs. vehicle. It is filed as in vivo. To be noted: 240 h, 0.3 mpk sc once a day for 10 days. The text has this:
The objective of this study design was to investigate the efficacy of disclosed compounds in a 10 day DIO mouse model. Effects on body weight, food intake, hematology and blood chemistry were the primary readouts of this study design. Male, Diet Induced Obese (DIO) C57BL/6 mice, 19-21 weeks of age (13-15 weeks on high fat diet) were ordered from a certified vendor and upon receipt were housed on irradiated corncob bedding in micro-isolator cages on a 12-hour light-dark cycle (0700-1900) at 68-74° F. and 30-70% humidity. Mice were fed Research Diets D12492 (60% Kcal fat, 20% Kcal carbohydrate and 20% protein) and provided water ad libitum. DIO mice were received and housed in the facility for approximately two weeks prior to the start of test article administration. On Day −4 or −3, mice were randomized into study groups based on body weight and body weights were continued to be recorded daily for the duration of the study. Daily food intake was assessed starting on Study Day −2 by weighing of the food with hopper together to avoid loss of food in transfer.
(§1) Compounds were formulated into a 100% DMSO stock (at 9 mg/mL) prior to the start, and further diluted into the target working concentration using the vehicle of 10% DMSO in water. Prior to test article administration, starting on Day −3 a dosing acclimation occured with all animals receiving a subcutaneous injection of vehicle (10% DMSO) only for 3 days. Starting on Day 1, test compounds or vehicle were administered based on individual body weight, subcutaneously, once a day for 10 days. All mice were sacrificed on Day 11, 24 hours following the final dosing on Day 10. After sacrifice, whole blood was collected and analyzed for hematology and blood chemistry parameters.
(§2) Compounds were tested for weight loss vs. vehicle at 0.3 and 1.0 mpk sc (mg per kg animal weight delivered subcutaneously), and the results are shown in Table 2 below.

In another test the target is T1, recombinant human MetAP2 (Homo sapiens, UniProt P50579).
T1 construct: Flag; made in house
T1 sequence (P50579 whole entry): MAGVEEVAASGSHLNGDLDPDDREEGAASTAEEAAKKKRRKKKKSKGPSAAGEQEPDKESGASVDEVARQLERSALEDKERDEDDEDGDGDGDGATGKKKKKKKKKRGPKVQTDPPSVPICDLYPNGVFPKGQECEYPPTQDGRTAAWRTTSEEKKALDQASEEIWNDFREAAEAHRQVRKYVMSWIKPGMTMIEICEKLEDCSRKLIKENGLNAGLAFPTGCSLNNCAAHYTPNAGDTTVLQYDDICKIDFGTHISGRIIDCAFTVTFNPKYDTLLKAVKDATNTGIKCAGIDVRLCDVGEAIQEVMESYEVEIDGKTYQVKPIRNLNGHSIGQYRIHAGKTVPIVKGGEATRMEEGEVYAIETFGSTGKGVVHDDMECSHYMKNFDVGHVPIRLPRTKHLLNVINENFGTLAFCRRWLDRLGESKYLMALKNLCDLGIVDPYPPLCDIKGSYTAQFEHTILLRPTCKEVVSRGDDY
In words: Inhibition of recombinant human MetAP2 activity (MAS peptide / amino acid oxidase / Amplex assay). It is filed as biochemical. Here is the method:
Compounds are tested for their capacity to inhibit recombinant human MetAP2 activity using the following assay.
Flag tagged Human recombinant MetAP2 expressed and isolated for use as the enzyme source. 10 mM stock solutions of compounds were prepared in 100% DMSO and further diluted in 100% DMSO required concentration to 1 mM stocks. The stock compound solutions and DMSO vehicle controls were diluted to target final compound concentrations using assay buffer to a final concentration of 50 mM HEPES containing 100 mM NaCl, pH adjusted to 7.5. The MAS peptide was formulated to a 7.5 mM stock in distilled water and prior to use further diluted 1:4. […] 40 μl of enzyme was mixed with 100 μl of MnCl2 then further diluted in assay buffer to a final concentration of 16 μg/ml. To test for compound effect on MetAP2 enzyme activity, 5 μl of test compound, 10 μl of MAS substrate/amino acid oxidase mixture, 10 μl of MetAP2 was added to test wells in a 384 well black plate with blank wells containing no enzyme, replaced with 10 μl of assay buffer. All compounds were tested in duplicate on two occasions on the same day.
The plate was sealed with a TopSeal A cover and mixed briefly on an orbital mixer at 900 rpm. The plate was incubated for a further 25 minutes at 25° C. A 5× stock of Amplex buffer was prepared (0.25M sodium phosphate, pH 7.4) and stored at 4° C. When preparing for use the stock was diluted with distilled water. […] Horse radish peroxidase was diluted in […] of Amplex buffer, 100 μl of this was combined with 50 μl of Amplex Ultrared in […] of 1× Amplex buffer to generate sufficient detection reagent for a 384 well plate. 25 μl detection reagent was added to each well of the test plate, which was re-sealed and mixed briefly on an orbital shaker. The plate was transferred to an Envision Multi-label reader and RFU measured corresponding to excitation 531 nm and emission 595 nm. At the end of the MetAP2 incubation 25 μl Amplex/HRP mixture per well was added and the plate read plate on a plate reader.

Test [2] has as its system rat DIO model (Sprague Dawley rats on high fat diet). In words: 11 day rat DIO model, weight loss vs. vehicle. To be noted: Rattus norvegicus, 264 h, 0.3 mpk sc once a day for 11 days. It counts as in vivo.
Source text: The objective of this study design is to investigate the efficacy of disclosed compounds in an 11 day rat DIO model used to screen compounds for pharmacologic efficacy on endpoints related to obesity and metabolism. Effects on body weight, food intake, hematology and blood chemistries were the primary readouts of this study design. Male Sprague Dawley rats, approximately 8 weeks of age, were ordered from a certified vendor and housed on irradiated corncob bedding in micro-isolator cages, on a 12-hour light-dark cycle (0700-1900) at 68-74° F. and 30-70% humidity. Rats were fed Research Diets D12451 (45% High Fat) and provided water ad libitum. Rats were received and housed in the facility for at least two or three weeks prior to start of test article administration. On Day −4 or −3, rats were randomized into study groups based on body weight and body weights were continued to be recorded daily for the duration of the study. Daily food intake was assessed starting on Study Day −2 by weighing the hopper including the food to avoid loss of food in transfer.
as §1, with “for 11” for “for 10”, “All animals” for “All mice”, “11, approximately 2” for “11, 24”, “Day 11.” for “Day 10.”
as §2

[3] abbreviates: Flag tagged human recombinant MetAP2, 25 minutes at 25° C., read-out: MetAP2 IC50.

Where a name gives a salt, the structure may show the parent alone. Read-outs that look alike come from different tables or passages of the source. Some results are limits rather than exact numbers.

As to `CO[C@@H]1[C@H](OC(=O)N2CC3(CCOC3)C2)CC[C@]2(CO2)[C@H]1[C@@]1(C)O[C@@H]1CC=C(C)C` [Example 6, (3R,4S,5S,6R)-5-methoxy-4-((2R,3R)-2-methyl-3-(3-methylbut-2-enyl)oxiran-2-yl)-1-oxaspiro[2.5]octan-6-yl 6-oxa-2-azaspiro[3.4]octane-2-carboxylate], the inhibition in vivo at 0.3 mg/kg in test [1] was found to be 13.9%; in test [2], 2.7%. For the same molecule, the IC50 on recombinant human MetAP2 (setting [3]) was < 50 nM.
As for `CO[C@@H]1[C@H](OC(=O)N2C[C@@H]3[C@H](C2)[C@H]3C(=O)N(C)C)CC[C@]2(CO2)[C@H]1[C@@]1(C)O[C@@H]1CC=C(C)C` [Example 33, (1R,5S,6R)-(3R,4S,5S,6R)-5-methoxy-4-((2R,3R)-2-methyl-3-(3-methylbut-2-en-1-yl)oxiran-2-yl)-1-oxaspiro[2.5]octan-6-yl 6-(dimethylcarbamoyl)-3-azabicyclo[3.1.0]hexane-3-carboxylate], the inhibition in vivo at 0.3 mg/kg in test [1] came to 13.8%. Also, on recombinant human MetAP2 (setting [3]), the IC50 is 50 to 500 nM.
With `CO[C@@H]1[C@H](OC(=O)N2CC3(CCOCC3)C2)CC[C@]2(CO2)[C@H]1[C@@]1(C)O[C@@H]1CC=C(C)C` [Example 3, (3R,4S,5S,6R)-5-methoxy-4-((2R,3R)-2-methyl-3-(3-methylbut-2-enyl)oxiran-2-yl)-1-oxaspiro[2.5]octan-6-yl 7-oxa-2-azaspiro[3.5]nonane-2-carboxylate], the inhibition in vivo at 0.3 mg/kg in test [1] is 18.9%; in test [2], 7.9%. Also, on recombinant human MetAP2 (setting [3]), the half-inhibitory concentration (IC50) is < 50 nM.
On to `CO[C@@H]1[C@H](OC(=O)N2CCC3(CC2)COC3)CC[C@]2(CO2)[C@H]1[C@@]1(C)O[C@@H]1CC=C(C)C` [Example 5, (3R,4S,5S,6R)-5-methoxy-4-((2R,3R)-2-methyl-3-(3-methylbut-2-enyl)oxiran-2-yl)-1-oxaspiro[2.5]octan-6-yl 2-oxa-7-azaspiro[3.5]nonane-7-carboxylate], for which the inhibition in vivo at 0.3 mg/kg was 16.7% in test [1] and 6.6% in test [2]. In addition, the IC50 at recombinant human MetAP2 is < 50 nM.
On to `CO[C@@H]1[C@H](OC(=O)N2CCC3(CCOC3)CC2)CC[C@]2(CO2)[C@H]1[C@@]1(C)O[C@@H]1CC=C(C)C` [Example 24, (3R,4S,5S,6R)-5-methoxy-4-((2R,3R)-2-methyl-3-(3-methylbut-2-enyl)oxiran-2-yl)-1-oxaspiro[2.5]octan-6-yl 2-oxa-8-azaspiro[4.5]decane-8-carboxylate], for which the inhibition in vivo at 0.3 mg/kg was 20.5% in test [1] and 6.3% in test [2]. On recombinant human MetAP2 (setting [3]), the IC50 is 50 to 500 nM.
Consider `CO[C@@H]1[C@H](OC(=O)NC2CC3(CCN(C)C3)C2)CC[C@]2(CO2)[C@H]1[C@@]1(C)O[C@@H]1CC=C(C)C` (stereo partly drawn) [Example 11, (3R,4S,5S,6R)-5-methoxy-4-((2R,3R)-2-methyl-3-(3-methylbut-2-enyl)oxiran-2-yl)-1-oxaspiro[2.5]octan-6-yl 6-methyl-6-azaspiro[3.4]octan-2-ylcarbamate formate], for which testing at 0.3 mg/kg in test [1] gave an inhibition in vivo of 6%. At recombinant human MetAP2, the half-maximal inhibitory concentration (IC50) is < 50 nM.
Regarding `CO[C@@H]1[C@H](OC(=O)N2CCC3(CCN(CC(F)F)CC3)CC2)CC[C@]2(CO2)[C@H]1[C@@]1(C)O[C@@H]1CC=C(C)C` [Example 14, (3R,4S,5S,6R)-5-methoxy-4-((2R,3R)-2-methyl-3-(3-methylbut-2-enyl)oxiran-2-yl)-1-oxaspiro[2.5]octan-6-yl 9-(2,2-difluoroethyl)-3,9-diazaspiro[5.5]undecane-3-carboxylate], the inhibition in vivo at 0.3 mg/kg was 23.3% in test [1] and 11.6% in test [2].
Take `CO[C@@H]1[C@H](OC(=O)N2C[C@H]3COC[C@H]3C2)CC[C@]2(CO2)[C@H]1[C@@]1(C)O[C@@H]1CC=C(C)C` [Example 13, (3aR,6aS)-((3R,4S,5S,6R)-5-methoxy-4-((2R,3R)-2-methyl-3-(3-methylbut-2-enyl)oxiran-2-yl)-1-oxaspiro[2.5]octan-6-yl) tetrahydro-1H-furo[3,4-c]pyrrole-5(3H)-carboxylate]: the results for the inhibition in vivo at 0.3 mg/kg in test [1] and in test [2] were 16.9% and 3.1%, respectively.
`CO[C@@H]1[C@H](OC(=O)N2CC3(CNC(=O)C3)C2)CC[C@]2(CO2)[C@H]1[C@@]1(C)O[C@@H]1CC=C(C)C` [Example 25, (3R,4S,5S,6R)-5-methoxy-4-((2R,3R)-2-methyl-3-(3-methylbut-2-enyl)oxiran-2-yl)-1-oxaspiro[2.5]octan-6-yl 7-oxo-2,6-diazaspiro[3.4]octane-2-carboxylate]: the inhibition in vivo at 0.3 mg/kg in test [1] amounted to 2%. On recombinant human MetAP2, the IC50 is < 50 nM.
Take `CO[C@@H]1[C@H](OC(=O)N2CC3(C2)CS(=O)(=O)C3)CC[C@]2(CO2)[C@H]1[C@@]1(C)O[C@@H]1CC=C(C)C` [Example 23, (3R,4S,5S,6R)-5-methoxy-4-((2R,3R)-2-methyl-3-(3-methylbut-2-enyl)oxiran-2-yl)-1-oxaspiro[2.5]octan-6-yl 2-thia-6-azaspiro[3.3]heptane 2,2-dioxide-6-carboxylate]: in test [1], at 0.3 mg/kg the inhibition in vivo was 2%. Moreover, the IC50 on recombinant human MetAP2 was in the range of 50 to 500 nM.
In test [1], `CO[C@@H]1[C@H](OC(=O)N2CC3(CN(C)C3)C2)CC[C@]2(CO2)[C@H]1[C@@]1(C)O[C@@H]1CC=C(C)C` [Example 12, (3R,4S,5S,6R)-5-methoxy-4-((2R,3R)-2-methyl-3-(3-methylbut-2-enyl)oxiran-2-yl)-1-oxaspiro[2.5]octan-6-yl 6-methyl-2,6-diazaspiro[3.3]heptane-2-carboxylate] registered an inhibition in vivo at 0.3 mg/kg of 1.8%. Further, the IC50 at recombinant human MetAP2 (setting [3]) was < 50 nM.
Turning to `CO[C@@H]1[C@H](OC(=O)N2CCC3(CCN(C)CC3)C2)CC[C@]2(CO2)[C@H]1[C@@]1(C)O[C@@H]1CC=C(C)C` [Example 26, (3R,4S,5S,6R)-5-methoxy-4-((2R,3R)-2-methyl-3-(3-methylbut-2-enyl)oxiran-2-yl)-1-oxaspiro[2.5]octan-6-yl 8-methyl-2,8-diazaspiro[4.5]decane-2-carboxylate], the inhibition in vivo at 0.3 mg/kg in test [1] was determined as 5.6%. For the same molecule, the IC50 at recombinant human MetAP2 (setting [3]) is < 50 nM.

The record behind these values is patent US9944613B2, “Fumagillol spirocyclic compounds and fused bicyclic compounds and methods of making and using same” (Zafgen, Inc., priority 2015, dated 2018).
